Values quoted from earlier work as cited in publication PMC5019575 (European journal of inorganic chemistry, 2015).

Columns and labels:
di-Fe^III-DF3 = molecular target: T1, di-Fe^III-DF3 (synthetic construct, UniProt Z9XD63LK24); assay: initial rates of oxidation, Lineweaver-Burk; assay type: biochemical; settings: O2 (air), diferric protein, 100 mM HEPES/100 mM NaCl pH 7.0
T1 sequence (Z9XD63LK24 2-49): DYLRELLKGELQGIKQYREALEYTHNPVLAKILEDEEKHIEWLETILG

G4-DFtet = settings: O2 (air), diiron protein, 100 mM HEPES/100 mM NaCl pH 7.0

SMILES | Km (di-Fe^III-DF3) [µM] | Km (G4-DFtet) [µM]
CC(C)(C)c1cc(O)c(O)c(C(C)(C)C)c1 [3,5-DTBC, 3,5-di-tert-butylcatechol] | 2090 ± 310 | 
Nc1ccc(O)cc1 [4-AP, 4-aminophenol] |  | 830 ± 60
Nc1ccc(N)cc1 [PPD, p-phenylenediamine] | 8870 ± 2580 | 
